Data on 23 compounds can be found in patent US20220169639A1 (priority 2018, published 2022).

For experiment [1], the system named is HBeAg (surrogate marker for cccDNA) in HepDES19 cells. Nature of the experiment: Engineered HepDES19 primary screen assay (HBeAg ELISA). In kind it is cell-based, HBV. The conditions noted are these: Hepatitis B virus, 120 h, HBeAg in culture supernatant, 5 days incubation, read-out: IC50 (HepDES19 primary screen assay, inhibition of extracellular HBeAg level). The method, boiled down: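 HepDES19 cells pre-induced by Tet withdrawal for 8 days, frozen, then seeded and dosed after 24 h with half-log compound dilutions (1% DMSO final). After 5 days at 37 °C, HBeAg measured by ELISA and viability by CCK-8; IC50 from 4-parameter logistic fit.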
On the technique in general: ELISA stands for enzyme-linked immunosorbent assay.

Experiment [2] concerns HBV (HBsAg) in HBV-infected PHH. Nature of the experiment: Cryopreserved primary human hepatocytes (PHH) HBV infection assay, extracellular HBsAg (CLIA). In kind it is cell-based. The conditions noted are these: Hepatitis B virus, Hepatocyte, 216 h, read-out: HBsAg IC50. The protocol: This assay is used to confirm the anti-HBV effect of the compounds in HBV PHH infection assay. Cryopreserved PHH (BioreclamationIVT, Lot YJM) was thawed at 37° C. and gently transferred into pre-warmed InVitroGRO HT medium (BioreclamationIVT, Cat. S03317). The mixture was centrifuged at 70 relative centrifugal force (RCF) for 3 minutes at RT, and the supernatant was discarded. Pre-warmed InVitroGRO CP medium (BioreclamationIVT, Cat #S03316) was added to the cell pellet to gently re-suspend cells. The cells were seeded at the density of 5.8×10^4 cells per well to collagen I coated 96-well plate (Gibco, Cat. A1142803) with the InVitroGRO CP medium. All plates were incubated at 37° C. with 5% CO2 and 85% humidity.
At 20 hours after plating, the medium was changed to PHH culture medium (Dulbecco's Modified Eagle Medium (DMEM)/F12 (1:1) (Gibco, Cat. 11320-033), 10% fetal bovine serum (Gibco Cat. 10099141), 100 U/mL penicillin, 100 μg/mL streptomycin (Gibco, Cat. 151401-122), 5 ng/mL human epidermal growth factor (Invitrogen Cat. PHG0311L), 20 ng/mL dexamethasone (Sigma, Cat. D4902) and 250 ng/mL human recombinant insulin (Gibco, Cat. 12585-014)). And the cells were incubated at 37° C. with 5% CO2 and 85% humidity for 4 hours. The medium was then changed to pre-warmed PHH culture medium containing 4% polyethylene glycol (PEG) MW8000 (Sigma, Cat. P1458-50ML) and 1% DMSO (Sigma, Cat. D2650). 5.8×10^6 genomic equivalents of HBV were added into the medium.
At 24 hours post-infection, the cells were gently washed with PBS and refreshed with PHH culture medium supplemented with 1% DMSO, and 0.25 mg/mL Matrix gel (Corning, Cat. 356237) at 200 μL per well. All plates were immediately placed in at 37° C. CO2 incubator. 24 hours later, serial dilutions of compounds made with DMSO were further diluted with the same culture medium (PHH culture medium supplemented with 1% DMSO and 0.25 mg/mL Matrix gel as described above) before they were added to the cells to reach desired final compound concentrations and 1% DMSO concentration. The medium containing the compounds were refreshed every three days.
At 9 days post-compound treatment, extracellular HBsAg level were measured with Chemiluminescence Immuno Assay (CLIA) kit (Autobio, HBsAg Quantitative CLIA). Extracellular HBV DNA was extracted by MagNA Pure 96 system (Roche) and then determined
HBsAg IC50 and HBV DNA IC50 values were derived from the dose-response curve using 4 parameter logistic curve fit method. The compounds of formula (I) have HBsAg IC50<20 μM, particularly <1 μM; and HBV DNA IC50<50 μM. Results of Cryopreserved PHH assay are given in TableBIO2.

As a reminder, the IC50 is the point on the concentration scale where inhibition reaches its midpoint. As for `O=C(O)C1CCN(CCCOc2cc(Br)ccc2-c2cc(=O)c3cccc(Cl)c3o2)C1` (stereo not drawn) [Example 001, 1-[3-[5-bromo-2-(8-chloro-4-oxo-chromen-2-yl)phenoxy]propyl]pyrrolidine-3-carboxylic acid], the IC50 stood at 0.35 µM in experiment [1] and 5.43 µM in experiment [2]. The matching figures for `O=C(O)C1CN(CCCOc2cc(Br)ccc2-c2cc(=O)c3cccc(Cl)c3o2)CCO1` (stereo not drawn) [Example 002, 4-[3-[5-bromo-2-(8-chloro-4-oxo-chromen-2-yl)phenoxy]propyl]morpholine-2-carboxylic acid]: 0.25 µM and 4.01 µM. The matching figures for `O=C(O)[C@@H]1CCN(CCCOc2cc(Br)ccc2-c2cc(=O)c3cccc(Cl)c3o2)C1` [Example 005, (3R)-1-[3-[5-bromo-2-(8-chloro-4-oxo-chromen-2-yl)phenoxy]propyl]pyrrolidine-3-carboxylic acid]: 8.93 µM and 8.34 µM.

On to `O=C(O)C1CC(NCCCOc2cc(C(F)(F)F)ccc2-c2cc(=O)c3cccc(Cl)c3o2)C1` (stereo not drawn) [Example 006, 3-[3-[2-(8-chloro-4-oxo-chromen-2-yl)-5-(trifluoromethyl)phenoxy]propylamino]cyclobutanecarboxylic acid], for which the IC50 is 4.68 µM in experiment [1] and 3.82 µM in experiment [2]. The matching figures for `O=C(O)C1CCC(NCCCOc2cc(C(F)(F)F)ccc2-c2cc(=O)c3cccc(Cl)c3o2)C1` (stereo not drawn) [Example 007, 3-[3-[2-(8-chloro-4-oxo-chromen-2-yl)-5-(trifluoromethyl)phenoxy]propylamino]cyclopentanecarboxylic acid]: 9.5 µM and 4.95 µM. The matching figures for `O=C(O)[C@@H]1CCN(CCCOc2cc(C(F)(F)F)ccc2-c2cc(=O)c3cccc(Cl)c3o2)C1` [Example 013, (3R)-1-[3-[2-(8-chloro-4-oxo-chromen-2-yl)-5-(trifluoromethyl)phenoxy]propyl]pyrrolidine-3-carboxylic acid]: 4.23 µM and 7.35 µM. The matching figures for `O=C(O)[C@H]1CCN(CCCOc2cc(C(F)(F)F)ccc2-c2cc(=O)c3cccc(Cl)c3o2)C1` [Example 014, (3S)-1-[3-[2-(8-chloro-4-oxo-chromen-2-yl)-5-(trifluoromethyl)phenoxy]propyl]pyrrolidine-3-carboxylic acid]: 0.37 µM and 5.08 µM.

As to `CCOc1ccc(-c2cc(=O)c3cccc(Cl)c3o2)c(OCCCN2CC[C@H](C(=O)O)C2)c1` [Example 015, (3S)-1-[3-[2-(8-chloro-4-oxo-chromen-2-yl)-5-ethoxy-phenoxy]propyl]pyrrolidine-3-carboxylic acid], the IC50 in experiment [1] came out at 7.85 µM; in experiment [2] it was 9.75 µM. The matching figures for `COc1cc(-c2cc(=O)c3cccc(Cl)c3o2)c(OCCCN2CC[C@@H](C(=O)O)C2)cc1Br` [Example 016, (3R)-1-[3-[5-bromo-2-(8-chloro-4-oxo-chromen-2-yl)-4-methoxy-phenoxy]propyl]pyrrolidine-3-carboxylic acid]: 0.89 µM and 7.64 µM. The matching figures for `COc1cc(-c2cc(=O)c3cccc(Cl)c3o2)c(OCCCN2CC[C@H](C(=O)O)C2)cc1Br` [Example 017, (3S)-1-[3-[5-bromo-2-(8-chloro-4-oxo-chromen-2-yl)-4-methoxy-phenoxy]propyl]pyrrolidine-3-carboxylic acid]: 0.34 µM and 3.42 µM.

As to `O=C(O)C1CN(CCCOc2cc(C(F)(F)F)ccc2-c2cc(=O)c3cccc(Cl)c3o2)CCO1` (stereo not drawn) [Example 018, 4-[3-[2-(8-chloro-4-oxo-chromen-2-yl)-5-(trifluoromethyl)phenoxy]propyl]morpholine-2-carboxylic acid], the IC50 is 0.41 µM in experiment [1] and 5.13 µM in experiment [2]. As for `O=C(O)C1CN(CCOc2cc(Br)ccc2-c2cc(=O)c3cccc(Cl)c3o2)C1` [Example 019, 1-[2-[5-bromo-2-(8-chloro-4-oxo-chromen-2-yl)phenoxy]ethyl]azetidine-3-carboxylic acid], the values for the IC50 in experiment [1] and in experiment [2] were 0.57 µM and 7.13 µM, respectively. The matching figures for `O=C(O)C1CCCN1CCOc1cc(Br)ccc1-c1cc(=O)c2cccc(Cl)c2o1` (stereo not drawn) [Example 020, 1-[2-[5-bromo-2-(8-chloro-4-oxo-chromen-2-yl)phenoxy]ethyl]pyrrolidine-2-carboxylic acid]: 0.87 µM and 8.36 µM. The matching figures for `O=C(O)C1CCN(CCOc2cc(Br)ccc2-c2cc(=O)c3cccc(Cl)c3o2)CC1` [Example 022, 1-[2-[5-bromo-2-(8-chloro-4-oxo-chromen-2-yl)phenoxy]ethyl]piperidine-4-carboxylic acid]: 1.31 µM and 6.8 µM. As to `O=C(O)C1CN(CCOc2cc(Br)ccc2-c2cc(=O)c3cccc(Cl)c3o2)CCO1` (stereo not drawn) [Example 023, 4-[2-[5-bromo-2-(8-chloro-4-oxo-chromen-2-yl)phenoxy]ethyl]morpholine-2-carboxylic acid], the figures for the IC50 in experiment [1] and in experiment [2] were 0.13 µM and 4.95 µM, respectively. As to `O=C(O)C1CC2CCC(C1)N2CCOc1cc(Br)ccc1-c1cc(=O)c2cccc(Cl)c2o1` (stereo not drawn) [Example 025, 8-[2-[5-bromo-2-(8-chloro-4-oxo-chromen-2-yl)phenoxy]ethyl]-8-azabicyclo[3.2.1]octane-3-carboxylic acid], the results for the IC50 in experiment [1] and in experiment [2] were 0.79 µM and 7.63 µM, respectively. Consider `Cc1ccc(-c2cc(=O)c3cccc(Cl)c3o2)c(OCCNS(N)(=O)=O)c1` [Example 161, 8-chloro-2-[4-methyl-2-[2-(sulfamoylamino)ethoxy]phenyl]-4-oxo-chromene], for which the IC50 in experiment [1] is 4.74 µM. The same measure, in the same setting: in the case of `O=C(O)C(=O)N1CCN(CCOc2cc(C(F)(F)F)ccc2-c2cc(=O)c3cccc(Cl)c3o2)C1=O` [Example 162, 2-[3-[2-[2-(8-chloro-4-oxo-chromen-2-yl)-5-(trifluoromethyl)phenoxy]ethyl]-2-oxo-imidazolidin-1-yl]-2-oxo-acetic acid] it was 0.08 µM. Regarding `O=C(O)[C@H]1CCN(CC(O)COc2cc(C(F)(F)F)ccc2-c2cc(=O)c3cccc(Cl)c3o2)C1` (stereo partly drawn) [Example 163, (3S)-1-[3-[2-(8-chloro-4-oxo-chromen-2-yl)-5-(trifluoromethyl)phenoxy]-2-hydroxy-propyl]pyrrolidine-3-carboxylic acid], in experiment [1], the IC50 was found to be 2.76 µM. Regarding `CC(NCCOc1cc(C(F)(F)F)ccc1-c1cc(=O)c2cccc(Cl)c2o1)C(N)=O` (stereo not drawn) [Example 168, 2-[2-[2-(8-chloro-4-oxo-chromen-2-yl)-5-(trifluoromethyl)phenoxy]ethylamino]propanamide], the IC50 in experiment [1] is 1.14 µM. Consider `O=C(O)C1CC(=O)N(CCCOc2cc(Br)ccc2-c2cc(=O)c3cccc(Cl)c3o2)C1` (stereo not drawn) [Example 169, 1-[3-[5-bromo-2-(8-chloro-4-oxo-chromen-2-yl)phenoxy]propyl]-5-oxo-pyrrolidine-3-carboxylic acid], for which, in experiment [1], the IC50 turned out to be 0.99 µM. Same read-out and setting: the same measure for `O=c1cc(-c2ccccc2O)oc2cc(O)ccc12` [Example F-1, 7-hydroxy-2-(2-hydroxyphenyl)chromen-4-one, reference compound]: over 50 µM; for `COc1ccc2oc(-c3ccccc3OC)cc(=O)c2c1` [Example F-2, 6-methoxy-2-(2-methoxyphenyl)chromen-4-one, reference compound]: over 50 µM.
